Results on 11 molecules are retold here after EP0966464B1, “SUBSTITUTED 2,4-DIAMINOPYRIMIDINES” (priority 1997, dated 1998).

Assay in all cases: Inhibition of purified bacterial dihydrofolate reductase (method of Baccanari and Joyner)
What all share (type): biochemical

Assay [1] concerns the target purified DHFR of the multiresistant strain S. aureus 157/4696 (Staphylococcus aureus, UniProt P0A017). The following applies: read-out: IC50 values S.aureus 157/4696, IC50 determined by means of a graph. The source says:
(§1) The inhibition of this enzyme was taken as a measurement of the antibacterial activity.

Assay [2] deals with T1, purified DHFR of the multiresistant strain Streptococcus pneumoniae 1/1 (Streptococcus pneumoniae serotype 4, UniProt Q54801).
T1 sequence (Q54801 1-168): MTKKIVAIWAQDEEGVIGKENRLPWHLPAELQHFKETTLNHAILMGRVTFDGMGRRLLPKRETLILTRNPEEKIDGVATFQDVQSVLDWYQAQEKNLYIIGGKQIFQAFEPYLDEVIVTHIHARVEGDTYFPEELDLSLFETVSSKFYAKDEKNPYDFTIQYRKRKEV
The conditions noted are these: read-out: IC50 values S.pneumoniae 1/1, IC50 determined by means of a graph.
Source text: as §1

In assay [3] the target is purified DHFR of the reference strain S. aureus ATCC 25923 (Staphylococcus aureus, UniProt P0A017).
Source text: as §1

With `COc1cc(Cc2cnc(N)nc2N)cc(/C=C/C(=O)N2N=Cc3ccccc3C2c2ccc(C)nc2)c1OC` (racemic) [I, (E)-(RS)-3-[5-(2,4-Diamino-pyrimidin-5-ylmethyl)-2,3-dimethoxyphenyl)-1-[1-(6-methyl-pyridin-3-yl)-1H-phthalazin-2-yl]-propenone], the IC50 in assay [1], in assay [2] and in assay [3] was 0.4 nM each time.
As to `COc1cc(Cc2cnc(N)nc2N)cc(/C=C/C(=O)N2N=Cc3ccccc3C2CCCCO)c1OC` (racemic) [F, (E)-(RS)-3-[5-(2,4-Diamino-pyrimidin-5-ylmethyl)-2,3-dimethoxyphenyl]-1-[1-(4-hydroxy-butyl)-1H-phthalazin-2-yl]-propenone], the IC50 in assay [1] is 3 nM; in assay [2], 9 nM; in assay [3], 1 nM.
In the same order, the values of `COc1cc(Cc2cnc(N)nc2N)cc(/C=C/C(=O)N2N=Cc3ccccc3C2c2ccc(CO)cc2)c1OC` (racemic) [C, (E)-(RS)-3-[5-(2,4-Diamino-pyrimidin-5-ylmethyl)-2,3-dimethoxyphenyl]-1-[1-(4-hydroxymethyl-phenyl)-1H-phthalazin-2-yl]-propenone] are 1 nM, 2 nM and 1 nM.
On the same counts, the results for `COc1cc(Cc2cnc(N)nc2N)cc(/C=C/C(=O)N2N=Cc3ccccc3C2c2cnc(C)nc2)c1OC` (racemic) [K, (E)-(RS)-3-[5-(2,4-Diamino-pyrimidin-5-ylmethyl)-2,3-dimethoxyphenyl]-1-[1-(2-methyl-pyrimidin-5-yl)-1H-phthalazin-2-yl]-propenone] are 0.6 nM, 2.5 nM and 0.6 nM.
In the same order, the values of `COc1cc(Cc2cnc(N)nc2N)cc(/C=C/C(=O)N2N=Cc3ccccc3C2c2ccc(O)cc2)c1OC` (racemic) [D, (E)-(RS)-3-[5-(2,4-Diamino-pyrimidin-5-ylmethyl)-2,3-dimethoxyphenyl]-1-[1-(4-hydroxy-phenyl)-1H-phthalazin-2-yl]-propenone] are 3 nM, 9 nM and 2 nM.
`COc1cc(Cc2cnc(N)nc2N)cc(/C=C/C(=O)N2N=Cc3ccccc3C2c2ccccc2)c1OC` (racemic) [A, (E)-(RS)-3-[5-(2,4-Diamino-pyrimidin-5-ylmethyl)-2,3-dimethoxyphenyl]-1-(1-phenyl-1H-phthalazin-2-yl)-propenone]: the IC50 in assay [1] was found to be 2 nM; in assay [2], 12 nM; in assay [3], 2 nM.
As to `CCC1c2ccccc2C=NN1C(=O)/C=C/c1cc(Cc2cnc(N)nc2N)cc(OC)c1OC` (racemic) [E, (E)-(RS)-3-[5-(2,4-Diamino-pyrimidin-5-ylmethyl)-2,3-dimethoxyphenyl]-1-(1-ethyl-1H-phthalazin-2-yl)-propenone], the figures for the IC50 in assay [1], in assay [2] and in assay [3] were 12 nM, 18 nM and 2 nM, respectively.
In the same order, the values of `COc1cc(Cc2cnc(N)nc2N)cc(/C=C/C(=O)N2N=Cc3ccccc3C2c2ccco2)c1OC` (racemic) [B, (E)-(RS)-3-[5-(2,4-Diamino-pyrimidin-5-ylmethyl)-2,3-dimethoxyphenyl]-1-(1-furan-2-yl-1H-phthalazin-2-yl)-propenone] are 8 nM, 22 nM and 2 nM.
In the same order, the values of `COc1cc(Cc2cnc(N)nc2N)cc(/C=C/C(=O)N2N=Cc3ccccc3[C@@H]2c2ccc(C)nc2)c1OC` [H, (E)-(R)-3-[5-(2,4-Diamino-pyrimidin-5-ylmethyl)-2,3-dimethoxy-phenyl]-1-[1-(6-methyl-pyridin-3-yl)-1H-phthalazin-2-yl]-propenone] are 0.4 nM, 1.2 nM and 0.3 nM.
For `CCc1ccc(C2c3ccccc3C=NN2C(=O)/C=C/c2cc(Cc3cnc(N)nc3N)cc(OC)c2OC)cn1` (racemic) [J, (E)-(RS)-3-[5-(2,4-Diamino-pyrimidin-5-ylmethyl)-2,3-dimethoxyphenyl]-1-[1-(6-ethyl-pyridin-3-yl)-1H-phthalazin-2-yl]-propenone], the IC50 in assay [1] was 0.2 nM; in assay [2] it was 1.5 nM; in assay [3], 0.3 nM.
On the same counts, the results for `CCCC1c2ccccc2C=NN1C(=O)/C=C/c1cc(Cc2cnc(N)nc2N)cc(OC)c1OC` (racemic) [G, (E)-(RS)-3-{5-(2,4-Diamino-pyrimidin-5-ylmethyl)-2,3-dimethoxyphenyl}-1-(1-propyl-1H-phthalazin-2-yl)-propenone] are 6 nM, 5 nM and 2 nM.
